Results as given in patent publication US12240846B2 (Enliven Inc., priority 2020, dated 2025).

Tests used:
pCRKL in K562 cells = assay: pCRKL ELISA assay in K562 cells; format: cell-based; settings: Homo sapiens, 1.5 h, 90 minutes incubation, read-out: pCRKL ELISA, Cell Line IC50 (nM) K562
Method: (§1) K562 or Ba/F3 ABL T315I cells (2.0*10^5 cells/100 μl/well) were seeded in 96 well (Corning, cat #3799). Compounds were dissolved in DMSO, serially diluted in DMSO and then were added, mixed, and incubated for 90 minutes at 37° C., 5% CO2. Following the 90-minute incubation, plates were centrifuged for 5 min at 3000 RPM and supernatant was removed from each well. Cells were washed 3 times with 150 μl PBS prior to addition of 100 μl cell RIPA lysis buffer (Boston BioProducts, cat #BP-115D) supplied with 1× complete ULTRA cocktail inhibitor (Roche, 05892791001) and 1× PhosSTOP Phosphatase Inhibitor Cocktail Tablets (Roche, 04906837001). Cells were incubated with lysis buffer for 1 hour at 4° C. prior to storage at −80C.
(§2) A capture antibody able to detect phosphorylated and non-phosphorylated CRKL (R&D Systems, cat #AF5127) was added to Meso Scale Discovery (MSD) standard bind plates (MSD, cat #L15XA-3) at 5 ug/mL and incubated at 4° C. overnight. The next day, plates were washed with PBS+ 0.05% Tween20 (PBST) and 150 μl of 5% BSA blocking solution was added for 1 hour at room temperature with shaking. Plates were washed with PBST. Lysates were thawed and 30 μl of lysate was added to the MSD plates and incubated for 2 hours at room temperature with shaking. MSD plates were washed with PBST and 30 μl of a detection antibody that binds phosphorylated pCRKL (R&D Systems, cat #MAB6910) was added at 1 ug/mL to each well. Plates were incubated for 1 hour at room temperature with shaking. Plates were washed with PBST prior to addition of 30 μl of a sulfo tagged goat anti mouse detection antibody (MSD cat #R32AC-1). Plates were incubated for 1 hour at room temperature with shaking. Plates were washed with PBST prior to addition of 150 ul of 1×MSD read buffer T (MSD, cat #R92TC-2). Electrochemiluminescence (ECLU) was read on an MSD plate reader (Meso Scale Discovery). The remaining activity by calculated as follows: % Relative activity=100× (ELCUsample−ECLULC)/(ECLUHC−ECLULC). The low and high controls (LC/HC) are generated from lysate from wells without cells or with cells treated with 0.1% DMSO, respectively. IC50 values were calculated using XLFit software using a nonlinear regression model with a sigmoidal dose response and are shown in Table 4 and Table 5 below.

HL60 cells = assay: HL60 cell proliferation assay (CellTiter-Glo); format: cell-based; settings: Homo sapiens, HL-60, HL60 cell viability, 72 hours, read-out: Cell Line (IC50, nM) HL60
ABL1 (T315I) = ABL1 (T315I) (Homo sapiens, UniProt P00519, T315I); assay: Luminescence-based ABL kinase assay (300 μM ATP), ADP-Glo; format: biochemical
ABL1 = target: T1, ABL1 (Homo sapiens, UniProt P00519); assay: as above; format: biochemical
T1 construct: purchased Carna Biosciences
Description: Compounds were serially diluted in DMSO. […] Luminescence signal positively correlates with kinase activity.

K562 cells = assay: K562 cell proliferation assay (CellTiter-Glo); format: cell-based; settings: Homo sapiens, K562 cell viability, 72 hours, read-out: Cell Line (IC50, nM) K562
[1] = tested on: pCRKL in Ba/F3 ABL1 (T315I) cells; assay: pCRKL ELISA assay in Ba/F3 ABL1 (T315I) cells; format: cell-based; settings: Mus musculus, BaF3, 1.5 h, 90 minutes incubation, read-out: pCRKL ELISA, Cell Line IC50 (nM) Ba/F3 ABL1 (T315I)
Method: as §1, §2

`COc1ccnc(OC)c1-c1cc2cc(NC(=O)[C@H]3C[C@@H]3CN3CCN(C)CC3)ncc2n1C` (single isomer, unassigned) [Compound 120] was tested, and the IC50 (pCRKL in K562 cells) was 108 nM, the IC50 (HL60 cells) was greater than 10000 nM and the IC50 (ABL1 (T315I)) was 39.8 nM. The IC50 (ABL1) was 27.1 nM and the IC50 (K562 cells) was 47.6 nM.

`COc1ncc(F)c(OC)c1-c1cc2cc(NC(=O)[C@H]3C[C@@H]3CN3CCN(C)CC3)ncc2n1C` (single isomer, unassigned) [Compound 128] was tested, and the IC50 (pCRKL in K562 cells) was 61.8 nM, the IC50 (HL60 cells) was greater than 10000 nM and the IC50 (ABL1 (T315I)) was 12.9 nM. It also gave an IC50 (ABL1) of 13.4 nM, an IC50 [1] of 171 nM and an IC50 (K562 cells) of 28.6 nM.

For `COc1ccnc(OC)c1-c1cc2cc(NC(=O)[C@H]3C[C@@H]3CN3CCNCC3)ncc2n1C` (single isomer, unassigned) [Compound 138], the IC50 (pCRKL in K562 cells) was 254 nM, the IC50 (ABL1 (T315I)) was 24.4 nM and the IC50 (ABL1) was 12.8 nM.

Molecule `COc1ccc(F)cc1-c1cc2cc(NC(=O)[C@@H]3C[C@@H]3F)ncc2n1C` [Compound 26, (1S,2S)-2-fluoro-N-[2-(5-fluoro-2-methoxyphenyl)-1-methylpyrrolo[2,3-c]pyridin-5-yl]cyclopropane-1-carboxamide] has an IC50 (pCRKL in K562 cells) of 303 nM, an IC50 (HL60 cells) of 2930 nM and an IC50 (ABL1 (T315I)) of 8.99 nM. The IC50 (ABL1) was 30.3 nM and the IC50 (K562 cells) was 174 nM.

With `COc1cccc(F)c1-c1cc2cc(NC(=O)[C@@H]3C[C@@H]3F)ncc2n1C` [Compound 27, (1S,2S)-2-fluoro-N-[2-(2-fluoro-6-methoxyphenyl)-1-methylpyrrolo[2,3-c]pyridin-5-yl]cyclopropane-1-carboxamide] the IC50 (pCRKL in K562 cells) was 553 nM, the IC50 (HL60 cells) was 761 nM and the IC50 (ABL1 (T315I)) was 1.85 nM. For the same molecule, the IC50 (ABL1) was 40.7 nM and the IC50 (K562 cells) was 112 nM.

`Cn1c(-c2cccc3c2CCN3)cc2cc(NC(=O)[C@@H]3C[C@@H]3F)ncc21` [Compound 31, (1S,2S)-N-[2-(2,3-dihydro-1H-indol-4-yl)-1-methylpyrrolo[2,3-c]pyridin-5-yl]-2-fluorocyclopropane-1-carboxamide] showed an IC50 (pCRKL in K562 cells) of 83.2 nM, an IC50 (HL60 cells) of 514 nM and an IC50 (ABL1 (T315I)) of 9.48 nM. For the same molecule, the IC50 (ABL1) was 10.7 nM and the IC50 (K562 cells) was 143 nM.

`[2H]C([2H])([2H])Oc1ncccc1-c1cc2cc(NC(=O)[C@@H]3C[C@@H]3F)ncc2n1C` [Compound 32, (1S,2S)-2-fluoro-N-(2-(2-(methoxy-d3)pyridin-3-yl)-1-methyl-1H-pyrrolo[2,3-c]pyridin-5-yl)cyclopropane-1-carboxamide] showed an IC50 (pCRKL in K562 cells) of 189 nM, an IC50 (HL60 cells) of 5120 nM and an IC50 (ABL1 (T315I)) of 83.1 nM. The IC50 (ABL1) was 28.6 nM and the IC50 (K562 cells) was 182 nM.

`COc1ncccc1-c1cc2cc(NC(=O)[C@@H]3C[C@@H]3F)ncc2n1C` [Compound 35, (1S,2S)-2-fluoro-N-[2-(2-methoxypyridin-3-yl)-1-methylpyrrolo[2,3-c]pyridin-5-yl]cyclopropane-1-carboxamide] showed an IC50 (pCRKL in K562 cells) of 241 nM, an IC50 (HL60 cells) of 4150 nM and an IC50 (ABL1 (T315I)) of 79.6 nM. For the same molecule, the IC50 (ABL1) was 39.7 nM, the IC50 [1] was 329 nM and the IC50 (K562 cells) was 123 nM.

For `COc1ncc(F)c(OC)c1-c1cc2cc(NC(=O)[C@@H]3C[C@@H]3F)ncc2n1C` [Compound 38, (1S,2S)-2-fluoro-N-[2-(5-fluoro-2,4-dimethoxypyridin-3-yl)-1-methylpyrrolo[2,3-c]pyridin-5-yl]cyclopropane-1-carboxamide], the IC50 (pCRKL in K562 cells) was 73.2 nM, the IC50 (HL60 cells) was 1350 nM and the IC50 (ABL1 (T315I)) was 23.9 nM. It also gave an IC50 (ABL1) of 11.3 nM, an IC50 [1] of 248 nM and an IC50 (K562 cells) of 27.5 nM.

`COc1ncnc(OC)c1-c1cc2cc(NC(=O)[C@@H]3C[C@@H]3F)ncc2n1C` [Compound 39, (1S,2S)-N-[2-(4,6-dimethoxypyrimidin-5-yl)-1-methylpyrrolo[2,3-c]pyridin-5-yl]-2-fluorocyclopropane-1-carboxamide] gave an IC50 (pCRKL in K562 cells) of 96.4 nM, an IC50 (HL60 cells) of 3780 nM and an IC50 (ABL1 (T315I)) of 71.8 nM. It also gave an IC50 (ABL1) of 36 nM, an IC50 [1] of 263 nM and an IC50 (K562 cells) of 33.6 nM.

With `COc1ccccc1-c1c(C)c2cnc(NC(=O)[C@@H]3C[C@@H]3F)cc2n1C` [Compound 52, (1S,2S)-2-fluoro-N-(2-(2-methoxyphenyl)-1,3-dimethyl-1H-pyrrolo[3,2-c]pyridin-6-yl)cyclopropane-1-carboxamide] the IC50 (pCRKL in K562 cells) was 416 nM, the IC50 (HL60 cells) was 1200 nM and the IC50 (ABL1 (T315I)) was 4.23 nM. It also gave an IC50 (ABL1) of 51.3 nM and an IC50 (K562 cells) of 109 nM.

Work on `COc1ccccc1-c1c(C)c2cnc(NC(=O)[C@H]3C[C@H]3F)cc2n1C` [Compound 53, (1R,2R)-2-fluoro-N-[2-(2-methoxyphenyl)-1,3-dimethylpyrrolo[3,2-c]pyridin-6-yl]cyclopropane-1-carboxamide] yielded an IC50 (pCRKL in K562 cells) of 574 nM, an IC50 (HL60 cells) greater than 10000 nM and an IC50 (ABL1 (T315I)) of 8.3 nM. For the same molecule, the IC50 (ABL1) was 82.4 nM and the IC50 (K562 cells) was 90.9 nM.

Work on `COc1cccc(F)c1-c1c(C)c2cnc(NC(=O)[C@@H]3C[C@@H]3F)cc2n1C` [Compound 54, (1S,2S)-2-fluoro-N-(2-(2-fluoro-6-methoxyphenyl)-1,3-dimethyl-1H-pyrrolo[3,2-c]pyridin-6-yl)cyclopropane-1-carboxamide] yielded an IC50 (pCRKL in K562 cells) of 151 nM, an IC50 (HL60 cells) of 957 nM and an IC50 (ABL1 (T315I)) of 6.51 nM. For the same molecule, the IC50 (ABL1) was 51.9 nM and the IC50 (K562 cells) was 51.1 nM.

For `COc1nc(C)nc(OC)c1-c1cc2cc(NC(=O)[C@@H]3C[C@@H]3F)ncc2n1C` [Compound 72, (1S,2S)-N-[2-(4,6-dimethoxy-2-methylpyrimidin-5-yl)-1-methylpyrrolo[2,3-c]pyridin-5-yl]-2-fluorocyclopropane-1-carboxamide], the IC50 (pCRKL in K562 cells) was 137 nM, the IC50 (HL60 cells) was 3130 nM and the IC50 (ABL1 (T315I)) was 54.7 nM. For the same molecule, the IC50 (ABL1) was 37.1 nM, the IC50 [1] was 1140 nM and the IC50 (K562 cells) was 38.7 nM.

`COc1ccnc(OC)c1-c1cc2cc(NC(=O)[C@@H]3C[C@@H]3F)ncc2n1C` [Compound 75, (1S,2S)-N-[2-(2,4-dimethoxypyridin-3-yl)-1-methylpyrrolo[2,3-c]pyridin-5-yl]-2-fluorocyclopropane-1-carboxamide] gave an IC50 (pCRKL in K562 cells) of 45.3 nM, an IC50 (HL60 cells) of 682 nM and an IC50 (ABL1 (T315I)) of 13.6 nM. It also gave an IC50 (ABL1) of 8.65 nM, an IC50 [1] of 93.2 nM and an IC50 (K562 cells) of 11.6 nM.

`COc1ccccc1-c1cc2cc(NC(=O)NCCN3CCN(C)CC3)ncc2n1C` [Compound 79, 3-[2-(2-methoxyphenyl)-1-methylpyrrolo[2,3-c]pyridin-5-yl]-1-[2-(4-methylpiperazin-1-yl)ethyl]urea] was tested, and the IC50 (pCRKL in K562 cells) was 594 nM, the IC50 (HL60 cells) was greater than 10000 nM and the IC50 (ABL1 (T315I)) was 77 nM. For the same molecule, the IC50 (ABL1) was 79.2 nM and the IC50 (K562 cells) was 329 nM.

`COc1nccc(OC2CC2)c1-c1cc2cc(NC(=O)[C@@H]3C[C@@H]3F)ncc2n1C` [Compound 90, (1S,2S)-N-[2-(4-cyclopropoxy-2-methoxypyridin-3-yl)-1-methylpyrrolo[2,3-c]pyridin-5-yl]-2-fluorocyclopropane-1-carboxamide] gave an IC50 (pCRKL in K562 cells) of 29.8 nM, an IC50 (HL60 cells) of 548 nM and an IC50 (ABL1 (T315I)) of 22.2 nM. The IC50 (ABL1) was 2.26 nM and the IC50 (K562 cells) was 6.01 nM.

With `[2H]C([2H])([2H])Oc1ncnc(OC([2H])([2H])[2H])c1-c1cc2cc(NC(=O)[C@@H]3C[C@@H]3F)ncc2n1C` [Compound 95, (1S,2S)-N-(2-(4,6-bis(methoxy-d3)pyrimidin-5-yl)-1-methyl-1H-pyrrolo[2,3-c]pyridin-5-yl)-2-fluorocyclopropane-1-carboxamide] the IC50 (pCRKL in K562 cells) was 66.3 nM, the IC50 (HL60 cells) was 3550 nM and the IC50 (ABL1 (T315I)) was 43.5 nM. It also gave an IC50 (ABL1) of 12.7 nM and an IC50 (K562 cells) of 47.8 nM.

For `CCc1ccnc(OC)c1-c1cc2cc(NC(=O)[C@@H]3C[C@@H]3F)ncc2n1C` [Compound 142, (1S,2S)-N-[2-(4-ethyl-2-methoxypyridin-3-yl)-1-methylpyrrolo[2,3-c]pyridin-5-yl]-2-fluorocyclopropane-1-carboxamide], the IC50 (HL60 cells) was 1690 nM, the IC50 (ABL1 (T315I)) was 17.5 nM and the IC50 (ABL1) was 18.6 nM. It also gave an IC50 (K562 cells) of 59.3 nM.

`CCOc1ncc(F)cc1-c1cc2cc(NC(=O)[C@@H]3C[C@@H]3F)ncc2n1C` [Compound 143, (1S,2S)-N-[2-(2-ethoxy-5-fluoropyridin-3-yl)-1-methylpyrrolo[2,3-c]pyridin-5-yl]-2-fluorocyclopropane-1-carboxamide] showed an IC50 (HL60 cells) of 9800 nM, an IC50 (ABL1 (T315I)) of 299 nM and an IC50 (ABL1) of 74.9 nM. The IC50 (K562 cells) was 289 nM.
